In patent US20240189315A1, “Cyclic Pyridine Derivatives as cGAS Inhibitors” (Boehringer Ingelheim International GmbH, priority 2022, published 2024):

Experiments:
[1] = target: cellular cGAS activity in baculovirus-stimulated THP1-Dual cells (Homo sapiens (Human), UniProt Q8N884); test: Human cGAS cell assay (THP1(vir) IC50): IFN induction in virus-stimulated THP1-Dual cells, IRF Lucia luciferase reporter; type: cell-based; conditions: Table 1; virus-stimulated THP1 cells; read-out: THP(vir) IC50;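 also: Eight-point dilution series starting at 10 µM, 1% DMSO, 18 h at 37 °C, luminescence read-out, virus-free wells as 0% and DMSO-treated virus-stimulated wells as 100%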
[2] = target: cellular cGAS activity in dsDNA-stimulated human whole blood (Homo sapiens (Human), UniProt Q8N884); test: Human whole blood assay (hWB IC50): IFNα2a production after dsDNA transfection; type: cell-based; conditions: Table 1; dsDNA-stimulated human whole blood;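 also: IFNα-2a in plasma measured by MSD electrochemiluminescence immunoassay after 22 h at 37 °C, 8-point dilution series from 10 µM top concentration, DMSO wells as controls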
Experimental: 6.3 Method: Human Whole Blood Assay (Human WB IC50) For the detection of cellular cGAS activity human whole blood was stimulated by transfection with double stranded DNA. Pathway activity was monitored by measuring the IFNα2α production.
Compounds were delivered as 10 mM DMSO solution and serially diluted and transferred to the 96-well cell culture plate (Corning #3595), prefilled with 20 μl OptiMEM (Gibco, #11058-021) in each well, using an Echo acoustic dispenser. Typically, 8 concentrations were used with the highest concentration at 10 μM in the final assay volume followed by ˜1:5 dilution steps. DMSO concentration was set to 0.1% in the final assay volume. The 96-well assay plate contained 10 test compounds, and DMSO in control wells.
Collection of human whole blood from 3 or more healthy donors (male or female, no medication for 7 days except contraceptive and thyroxine) as Na-Citrate blood (e.g. 3.8% in Monovettes from Sarstedt) was conducted in parallel. Whole blood was kept at room temperature for a maximum of 3 hours after collection until use in the assay.
160 μl of the whole blood samples was transferred to each well of the 96-well assay plates filled with compound/OptiMEM. All assay plates were prepared as duplicates with blood from different donors. Blood plates were kept at room temperature for 60 minutes and continuous shaking with 450 rpm, covered with the lid, but not sealed.
20 μl OptiMEM and 9.6:1 Fugene was added to all low control wells.
After covering assay plates with area seals and the lid, blood plates were kept at room temperature for 30 minutes and continuous shaking with 450 rpm, followed by an overnight incubation of 22 h at 37° C. in the incubator, without shaking.
For the detection of IFNα-2a in human plasma, the biotinylated capture antibody (Antibody set IFNA2, Meso Scale Diagnostics #B21VH-3, including coating and capture antibody) was diluted 1:17.5 in Diluent 100 (Meso Scale Diagnostics #R50AA-4), according to the manufacturer's directions. U-Plex MSD GOLD 96-well Small Spot Strepavidin SECTOR Plates (Meso Scale Diagnostics #L45SA-5) were coated with 25 μl diluted capture antibody. Coated plates were incubated for 60 min at room temperature under continuous shaking at 700 rpm. MSD IFNα-2a plates were washed three times with 150 μl wash buffer (1×HBSS, 0.05% Tween).
After blocking the plates with 100 μl block solution/well (1×HBSS with 0.2% Tween, 2% BSA) for 60 min at room temperature and continuous shaking at 700 rpm, plates were emptied as dry as possible by dumping just before continuing with the human plasma.
Whole Blood assay plates were centrifuged at 1600 rpm for 10 minutes. 25 μl of supernatant was transferred with a pipetting robot from each whole blood plate to the corresponding IFNα-2a plate.
Plates were sealed with microplate seals and kept at room temperature again under continuous shaking at 700 rpm for two hours.
Next MSD IFNα-2a plates were washed three times with 150 μl wash buffer (1×HBSS, 0.05% Tween), before adding 25 μl MSD SULFO-TAG IFNα-2a Antibody solution (1:100 diluted in Diluent 3 (Meso Scale Diagnostics #R50AP-2) to each well of the plates.
Afterwards plates were sealed with microplate seals and kept at room temperature again under continuous shaking at 700 rpm for two hours. Finally, MSD IFNα-2a plates were washed three times with 150 μl wash buffer (1×HBSS, 0.05% Tween). 150 μl 2× Read buffer was added to each well and plates were immediately measured with the MSD Sector S600 Reader using the vendor barcode.
For data evaluation and calculation,% control calculation of each well was based on the mean of high (DNA stimulated control) and mean of low (unstimulated control) controls by using the following formula:
The IC50-values were calculated using the standard 4 parameter logistic regression formula.

[3] = tested on: pathway directly downstream of cGAS in cGAMP-stimulated THP1-Dual cells; test: cGAMP stimulated counter cell assay (THP1(cGAMP) IC50): IFN induction in cGAMP-stimulated THP1-Dual cells; type: cell-based, human; conditions: Table 1; for IC50: Homo sapiens, THP1-Dual, cGAMP-stimulated THP1 cells, read-out: THP(cGAMP) IC50; for Ratio THP(cGAMP) IC50/ THP(vir) IC50: selectivity for cGAS inhibition
Excerpt: 6.2 Method: Human cGAS Cell Assay and cGAMP Stimulated Counter Cell Assay (THP1(vir) IC50 and THP1(cGAMP) IC50)
THP1-Dual™ cells (InvivoGen #thpd-nfis) expressing IRF dependent Lucia luciferase reporter were used as basis for both assays. For the detection of cellular cGAS activity cells were stimulated by a baculovirus (pFastbac-1, Invitrogen, no coding insert) infection that delivers the cGAS enzyme stimulating double-stranded DNA (measurement of THP1(vir) IC50).
For the counter assay, cells were stimulated by cGAMP (SigmaAldrich #SML1232) to activate the identical pathway independent and directly downstream of cGAS (measurement of THP1(cGAMP) IC50). Pathway activity was monitored by measuring the Lucia luciferase activity induced by either DNA stimulated cGAS enzyme activity (measurement of THP1(vir) IC50) or by cGAMP directly (measurement of THP1(cGAMP) IC50, counter assay).
Compounds were delivered in 10 mM DMSO solution, serially diluted and transferred to the 384 well assay plate (Greiner #781201) using an Echo acoustic dispenser. Typically, 8 concentrations were used with the highest concentration at 10 μM in the final assay volume followed by ˜1:5 dilution steps. DMSO concentration was set to 1% in the final assay volume. The 384 well assay plate contained 21 test compounds (column 1-22), and DMSO in column 23 and 24.
Cells, cultivated according to manufacturer conditions, were harvested by centrifugation at 300 g/10 min and were then resuspended and diluted to 1.66E5 cells/ml in fresh cell culture medium (RPMI 1640 (Gibco #A10491-01), 10% FCS (Gibco #10500), 1× GlutaMax (Gibco #35050-061), 1× Pen/Strep solution (Gibco #15140-122), 100 μg/ml Normocin (InvivoGen #ant-nr), 100 μg/ml Zeocin (InvivoGen #ant-zn), 10 μg/ml Blasticidin S (Life Technologies #A11139-03)). The baculovirus solution was then added 1:200 (have varied according to virus batch) to the cells (measurement of THP1(vir) IC50). […] 30 μL of the cell/virus-mix were added to each well of the compound plate from column 1-23 via MultiDrop Combi dispenser (5000 cells/well). In column 24, 30 μl/5000 cells/well without virus were added as a low control.
The plates were then incubated for 18 h at 37° C. in a humidified incubator.
Following that, 15 μL of QuantiLuc detection reagent (InvivoGen #rep-qlcg5) were added to each well using a MultiDrop Combi. Measurement was done immediately after the addition using an EnVision reader (US-luminescence read-mode).
Data Evaluation and Calculation:
For data evaluation and calculation, the measurement of the low control was set as 0% control and the measurement of the high control was set as 100% control. The IC50 values were calculated using the standard 4 parameter logistic regression formula. Calculation: [y=(a−d)/(1+(x/c)^b)+d], a=low value, d=high value; x=conc M; c=IC50 M; b=slope

Human cGAS enzyme = Human cGAS enzyme (Homo sapiens (Human), UniProt Q8N884); test: Human cGAS enzyme assay (hcGAS IC50, in vitro), cGAMP formation by RapidFire MS; type: biochemical; conditions: Table 1;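 also: recombinant human cGAS activated by 45 bp dsDNA with 30 µM each ATP and GTP, 90 min, cGAMP vs cyclic-di-GMP standard by MS, 8-point titration from 10 µM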
Sequence of Human cGAS enzyme (Q8N884 whole entry): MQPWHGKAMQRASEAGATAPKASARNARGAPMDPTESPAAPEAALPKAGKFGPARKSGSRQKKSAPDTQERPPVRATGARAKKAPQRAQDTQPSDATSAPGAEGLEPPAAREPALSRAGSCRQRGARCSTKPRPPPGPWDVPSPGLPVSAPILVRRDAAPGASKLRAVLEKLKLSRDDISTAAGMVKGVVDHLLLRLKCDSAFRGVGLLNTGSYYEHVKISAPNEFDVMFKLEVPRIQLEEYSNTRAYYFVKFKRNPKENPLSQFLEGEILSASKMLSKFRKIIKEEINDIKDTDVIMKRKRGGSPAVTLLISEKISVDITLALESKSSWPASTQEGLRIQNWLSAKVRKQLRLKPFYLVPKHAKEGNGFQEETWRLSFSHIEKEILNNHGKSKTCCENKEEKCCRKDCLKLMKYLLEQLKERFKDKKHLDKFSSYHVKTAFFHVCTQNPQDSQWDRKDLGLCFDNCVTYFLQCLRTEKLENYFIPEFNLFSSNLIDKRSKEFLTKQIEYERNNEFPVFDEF

Sequence of cellular cGAS activity in dsDNA-stimulated human whole blood (Q8N884 whole entry): as above
Sequence of cellular cGAS activity in baculovirus-stimulated THP1-Dual cells (Q8N884 whole entry): as above

SMILES | IC50 [1] | IC50 [2] | IC50 [3] | Ratio THP(cGAMP) IC50/ THP(vir) IC50 [3] | IC50 (Human cGAS enzyme)
C[C@H]1CN2CC[C@]1(F)c1cc(Cl)cnc1O[C@H]1C[C@@H](C(=O)O)N(C1)c1nc(nc3c1oc1ccccc13)C(F)(F)OCCCCC2=O [Example 15, (1R,9S,11S,34S)-4-chloro-1,25,25-trifluoro-34-methyl-31-oxo-8,15,26-trioxa-6,12,23,32,37-pentaazaheptacyclo[30.2.2.1^9,12.1^13,24.0^2,7.0^14,22.0^16,21]octatriaconta-2(7),3,5,13(37),14(22),16(21),17,19,23-nonaene-11-carboxylic acid] | 70 nM | 47 nM | 8200 nM | 117 | 11 nM
C[C@H]1CN2CC[C@]1(F)c1cc(Cl)cnc1O[C@H]1C[C@@H](C(=O)O)N(C1)c1nc(nc3c1oc1ccccc13)CCOCCCC2=O [Example 16] | 36 nM | 101 nM | 6600 nM | 184 | 11 nM
C[C@H]1CN2CC[C@]1(F)c1cc(Br)cnc1O[C@H]1C[C@@H](C(=O)O)N(C1)c1nc(nc3c1oc1ccccc13)CCOCCCC2=O [Example 17] | 140 nM | 96 nM | 5600 nM | 40 | 13 nM
C#Cc1cnc2c(c1)[C@@]1(F)CCN(C[C@@H]1C)C(=O)CCCOCCc1nc(c3oc4ccccc4c3n1)N1C[C@H](C[C@H]1C(=O)O)O2 [Example 18, (1R,9S,11S,34S)-4-ethynyl-1-fluoro-34-methyl-31-oxo-8,15,27-trioxa-6,12,23,32,37-pentaazaheptacyclo[30.2.2.1^9,12.1^13,24.0^2,7.0^14,22.0^16,21]octatriaconta-2,4,6,13,16,18,20,22,24(37)-nonaene-11-carboxylic acid] | 35 nM | 18 nM | 4300 nM | 122 | 6 nM
CC(=O)c1cnc2c(c1)[C@@]1(F)CCN(C[C@@H]1C)C(=O)CCCOCCc1nc(c3oc4ccccc4c3n1)N1C[C@H](C[C@H]1C(=O)O)O2 [Example 19] | 73 nM | 146 nM | > 10000 nM | 136 | 8 nM
COc1ncccc1-c1cnc2c(c1)[C@@]1(F)CCN(C[C@@H]1C)C(=O)CCCOCCc1nc(c3oc4ccccc4c3n1)N1C[C@H](C[C@H]1C(=O)O)O2 [Example 20.01, (1R,9S,11S,34S)-1-fluoro-4-(2-methoxypyridin-3-yl)-34-methyl-31-oxo-8,15,27-trioxa-6,12,23,32,37-pentaazaheptacyclo[30.2.2.1^9,12.1^13,24.0^2,7.0^14,22.0^16,21]octatriaconta-2,4,6,13(37),14(22),16(21),17,19,23-nonaene-11-carboxylic acid] | 19 nM | 45 nM | 8100 nM | 419 | 18 nM
C[C@H]1CN2CC[C@]1(F)c1cc(-c3cnn(C)c3)cnc1O[C@H]1C[C@@H](C(=O)O)N(C1)c1nc(nc3c1oc1ccccc13)CCOCCCC2=O [Example 20.02] | 8 nM | 10 nM | 7900 nM | 946 | 7 nM
COc1cc(-c2cnc3c(c2)[C@@]2(F)CCN(C[C@@H]2C)C(=O)CCCOCCc2nc(c4oc5ccccc5c4n2)N2C[C@H](C[C@H]2C(=O)O)O3)c(F)cn1 [Example 20.03] | 18 nM | 38 nM | 5900 nM | 321 | 18 nM
C[C@H]1CN2CC[C@]1(F)c1cc(Cl)cnc1O[C@H]1C[C@@H](C(=O)O)N(C1)c1nc(nc3c1oc1ccccc13)C(F)(F)COCCCC2=O [Example 21, (1R,9S,11S,34S)-4-chloro-1,25,25-trifluoro-34-methyl-31-oxo-8,15,27-trioxa-6,12,23,32,37-penta-azaheptacyclo[30.2.2.1^9,12.1^13,24.0^2,7.0^14,22.0^16,21]octatriaconta-2,4,6,13(37),14(22),16(21),17,19,23-nonaene-11-carboxylic acid] | 3 nM | 7 nM | 10000 nM | 3281 | 5 nM
